SMILES strings stand for the structures. Read-outs that look alike come from different tables or passages of the source.

For assay [1], the target named is T1, rat A1 receptors (rA1) (Rattus norvegicus, UniProt P25099).
T1 construct: to A1 receptors from rat cerebral cortical membranes; from tissue; host or cells: rat cerebral cortical (brain) membranes
T1 sequence (P25099 1-326): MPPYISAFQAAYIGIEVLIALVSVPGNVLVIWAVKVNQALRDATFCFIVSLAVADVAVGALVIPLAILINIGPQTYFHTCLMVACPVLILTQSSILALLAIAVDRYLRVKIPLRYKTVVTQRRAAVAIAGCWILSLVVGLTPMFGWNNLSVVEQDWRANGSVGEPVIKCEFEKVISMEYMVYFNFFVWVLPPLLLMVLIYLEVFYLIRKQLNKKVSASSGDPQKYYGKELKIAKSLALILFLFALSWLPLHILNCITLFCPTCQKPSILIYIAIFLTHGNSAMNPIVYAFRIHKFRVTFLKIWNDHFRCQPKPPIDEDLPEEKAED
Kind of assay: Displacement of [3H]R-PIA binding in rat brain (cerebral cortical) membranes. As to conditions: Table 4; read-out: rA1 Ki. On the technique in general: Loss of bound radioactivity is the signal in a displacement assay; it reports binding, not function.

Assay [2] concerns the target T2, human A2B receptors (hA2B) (Homo sapiens, UniProt P29275).
T2 construct: expressed in transfected cells; host or cells: HEK-293 (HEK-A2B, G418-selected)
T2 sequence (P29275 1-332): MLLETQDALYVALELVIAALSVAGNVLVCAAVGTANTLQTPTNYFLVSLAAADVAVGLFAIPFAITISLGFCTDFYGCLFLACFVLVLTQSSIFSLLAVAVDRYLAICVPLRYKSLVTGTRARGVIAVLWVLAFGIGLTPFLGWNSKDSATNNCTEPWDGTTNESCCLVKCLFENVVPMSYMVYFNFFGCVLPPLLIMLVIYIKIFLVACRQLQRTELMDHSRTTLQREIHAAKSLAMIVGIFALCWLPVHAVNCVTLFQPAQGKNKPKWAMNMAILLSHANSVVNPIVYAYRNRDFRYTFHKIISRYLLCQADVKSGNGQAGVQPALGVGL
The assay is described as follows: Radioligand binding ([125I]ABOPX / [3H]ZM241385) at human A2B receptors expressed in HEK-293 cells. As to conditions: for rA1/hA2B: Ki ratio.

Assay [3] concerns the target recombinant human A2A receptors (hA2A) (Homo sapiens, UniProt P29274). Kind of assay: Radioligand binding (125I-ZM241385) at recombinant human A2A receptors in HEK-293 cells. As to conditions: read-out: hA2A Ki, values marked (h)^a; Table 4; vs [125I]ZM241385, HEK-293.
Method: (§1) All non-radioactive compounds were initially dissolved in DMSO, and diluted with buffer to the final concentration, where the amount of DMSO never exceeded 2%. Incubations were terminated by rapid filtration over Whatman GF/B filters, using a Brandell cell harvester (Brandell, Gaithersburg, Md.). The tubes were rinsed three times with 3 mL buffer each.
(§2) At least six different concentrations of competitor, spanning 3 orders of magnitude adjusted appropriately for the IC50 of each compound, were used. IC50 values, calculated with the nonlinear regression method implemented in (Graph-Pad Prism, San Diego, Calif.), were converted to apparent Ki values as described.
(§3) The potency of the xanthine derivatives at human A2B receptors was evaluated using two binding assays. […] In order to determine selectivity, the xanthines were evaluated using standard binding assays at A1, A2A, and A3 receptors.
Assay [4] concerns the target T3, human A3 receptors (hA3) (Homo sapiens, UniProt P0DMS8).
T3 construct: expressed in transfected cells; host or cells: HEK-293
T3 sequence (P0DMS8 1-318): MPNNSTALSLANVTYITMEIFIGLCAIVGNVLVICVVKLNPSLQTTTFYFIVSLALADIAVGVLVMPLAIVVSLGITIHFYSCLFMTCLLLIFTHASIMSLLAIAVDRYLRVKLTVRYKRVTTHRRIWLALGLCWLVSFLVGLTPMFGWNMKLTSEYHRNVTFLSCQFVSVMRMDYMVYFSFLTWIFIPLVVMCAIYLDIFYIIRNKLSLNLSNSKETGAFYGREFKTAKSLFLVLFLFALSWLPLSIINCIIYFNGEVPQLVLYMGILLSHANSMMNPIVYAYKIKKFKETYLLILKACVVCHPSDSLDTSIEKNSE
The assay is described as follows: Displacement of [125I]AB-MECA binding at human A3 receptors expressed in HEK-293 cells (Table 4).

Assay [5] concerns the target T4, recombinant human A1 receptors (hA1) (Homo sapiens, UniProt P30542).
T4 sequence (P30542 1-326): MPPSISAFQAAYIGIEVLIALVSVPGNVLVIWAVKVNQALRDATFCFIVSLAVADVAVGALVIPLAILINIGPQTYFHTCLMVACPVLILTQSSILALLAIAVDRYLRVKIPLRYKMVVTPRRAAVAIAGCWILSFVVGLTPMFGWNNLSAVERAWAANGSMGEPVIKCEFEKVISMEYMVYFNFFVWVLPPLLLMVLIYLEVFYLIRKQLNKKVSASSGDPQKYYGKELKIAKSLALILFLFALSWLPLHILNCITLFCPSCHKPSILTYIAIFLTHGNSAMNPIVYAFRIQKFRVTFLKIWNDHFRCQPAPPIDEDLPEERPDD
The assay is described as follows: Radioligand binding ([3H]CPX) at recombinant human A1 receptors in HEK-293 cells. As to conditions: read-out: hA1 Ki, values marked (h)^a; Table 4; vs [3H]CPX, HEK-293.
Method: as §1, §2, §3

Assay [6] concerns the target T5, rat A2A receptors (rA2A) (Rattus norvegicus, UniProt P30543).
T5 construct: to A2A receptors from rat striatal membranes was performed as described; from tissue; host or cells: rat striatal membranes
The assay is described as follows: Displacement of [3H]CGS 21680 binding in rat striatal membranes. The note with it: Table 4; read-out: rA2A Ki.

[7] abbreviates: Table 4, unmarked value, first of two binding assays, read-out: hA2B Ki.

T5 sequence (P30543 whole entry): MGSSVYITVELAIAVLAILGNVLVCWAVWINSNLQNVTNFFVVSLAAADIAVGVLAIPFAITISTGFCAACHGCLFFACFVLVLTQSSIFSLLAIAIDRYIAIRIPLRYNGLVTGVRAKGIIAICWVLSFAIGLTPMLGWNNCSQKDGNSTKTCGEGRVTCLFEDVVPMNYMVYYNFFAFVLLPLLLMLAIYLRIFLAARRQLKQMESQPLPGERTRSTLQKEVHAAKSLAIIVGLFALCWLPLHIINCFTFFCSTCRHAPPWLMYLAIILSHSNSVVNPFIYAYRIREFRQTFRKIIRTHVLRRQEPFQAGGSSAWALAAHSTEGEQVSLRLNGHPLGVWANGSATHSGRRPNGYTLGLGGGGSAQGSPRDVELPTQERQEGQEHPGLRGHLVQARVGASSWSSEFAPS
Sequence of recombinant human A2A receptors (hA2A) (P29274 whole entry): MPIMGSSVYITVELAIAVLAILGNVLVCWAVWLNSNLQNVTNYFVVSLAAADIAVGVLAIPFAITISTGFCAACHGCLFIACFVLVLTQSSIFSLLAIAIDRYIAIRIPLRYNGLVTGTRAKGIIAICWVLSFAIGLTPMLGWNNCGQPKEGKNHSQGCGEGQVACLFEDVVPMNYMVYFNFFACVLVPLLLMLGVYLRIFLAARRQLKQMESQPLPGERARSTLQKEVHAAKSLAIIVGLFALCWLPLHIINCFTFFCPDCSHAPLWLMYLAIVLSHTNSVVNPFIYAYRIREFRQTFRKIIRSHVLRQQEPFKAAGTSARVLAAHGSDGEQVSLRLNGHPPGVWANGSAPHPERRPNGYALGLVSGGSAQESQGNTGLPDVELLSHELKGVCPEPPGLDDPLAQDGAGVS

As to `CCCn1c(=O)c2[nH]c(-c3ccc(OCC(=O)NNC(=O)CCC(=O)O)cc3)nc2n(CCC)c1=O` [Compound 42, 8-[4-[(Carboxymethyl)oxy]phenyl]-1,3-di-(n-propyl)xanthine N-[(3-Carboxy)-n-propionyl]hydrazide], the Ki (commonly a dissociation constant, usually derived from enzyme kinetics or from competition with a known ligand) in assay [1] was 73.3 ± 22 nM; in assay [2] (Table 4, footnote a: [125I]-ABOPX, read-out: hA2B Ki (value marked ^a) (converted)) it was 97.8 nM; in assay [2] (setting [7]), 116 ± 10 nM; in assay [3] it was 795 nM; in assay [4], 173 ± 27 nM; in assay [5] it was 219 nM. Also, in assay [6], the inhibition constant Ki stood at 174 ± 32 nM. Besides, the rA1/hA2B in assay [2] (Table 4) is on record as 1.6.
Take `CCCn1c(=O)c2[nH]c(-c3ccc(OCC(=O)NN4C(=O)CCC4=O)cc3)nc2n(CCC)c1=O` [Compound 43, 8-[4-[(Carboxymethyl)oxy]phenyl]-1,3-di-(n-propyl)xanthine N,N-Succinylhydrazide]: the inhibition constant Ki in assay [1] is 55.9 ± 25.1 nM; in assay [2] (setting [7]), 18.6 ± 6.1 nM; in assay [3], 27.2 nM; in assay [4], 766 ± 176 nM; in assay [5], 75.2 nM; in assay [6], 805 ± 44 nM. Besides, in assay [2] (Table 4), the rA1/hA2B was 3.0.
For `CCCn1c(=O)c2[nH]c(-c3ccc(OCC(=O)NN4C(=O)C[C@H](NC(=O)C(F)(F)F)C4=O)cc3)nc2n(CCC)c1=O` [Compound 44, 8-[4-[(Carboxymethyl)oxy]phenyl]-1,3-di-(n-propyl)xanthine N,N-[((2S)-Trifluoroacetamido)succinyl]hydrazide], the inhibitory constant (Ki) in assay [1] was found to be 74.3 ± 6.6 nM; in assay [2] (setting [7]) it was 30.2 ± 0.5 nM; in assay [4], 1560 nM; in assay [6], 139 ± 32 nM. Also, in assay [2] (Table 4), the rA1/hA2B is reported as 2.5.
Take `CCCn1c(=O)c2[nH]c(-c3ccc(OCC(=O)NN4C(=O)CCC(c5ccccc5)C4=O)cc3)nc2n(CCC)c1=O` (stereo not shown) [Compound 45, 8-[4-[(Carboxymethyl)oxy]phenyl]-1,3-di-(n-propyl)xanthine N,N-[(2-Phenyl)glutaryl]hydrazide]: the inhibitory constant (Ki) was determined as 3.87 ± 1.2 nM in assay [1], 3.86 ± 0.7 nM in assay [2] (setting [7]), 151 ± 99 nM in assay [4] and 21.4 ± 6.1 nM in assay [6]. Besides, the rA1/hA2B in assay [2] (Table 4) was found to be 1.0.
In the case of `CCCn1c(=O)c2[nH]c(-c3ccc(OCC(=O)NN4C(=O)C=C(C)C4=O)cc3)nc2n(CCC)c1=O` [Compound 46, 8-[4-[(Carboxymethyl)oxy]phenyl]-1,3-di-(n-propyl)xanthine N,N-Citraconylhydrazide], the Ki in assay [1] stood at 203 ± 41 nM; in assay [2] (setting [7]) it was 144 ± 11 nM; in assay [4], 551 ± 106 nM; in assay [6] it was 1230 ± 270 nM. In assay [2] (Table 4), the rA1/hA2B turned out to be 1.4.
With `CCCn1c(=O)c2[nH]c(-c3ccc(OCC(=O)NN4C(=O)C=C(c5ccccc5)C4=O)cc3)nc2n(CCC)c1=O` [Compound 49, 8-[4-[(Carboxymethyl)oxy]phenyl]-1,3-di-(n-propyl)xanthine N,N-[(2-Phenyl)maleyl]hydrazide], the Ki came out at 225 ± 76 nM in assay [1], 66.7 ± 37 nM in assay [2] (setting [7]), 748 ± 234 nM in assay [4] and 1540 ± 280 nM in assay [6]. For the same compound, in assay [2] (Table 4), the rA1/hA2B is reported as 3.4.
Turning to `CCCn1c(=O)c2[nH]c(-c3ccc(OCC(=O)NN4C(=O)C(c5ccccc5)=C(c5ccccc5)C4=O)cc3)nc2n(CCC)c1=O` [Compound 50, 8-[4-[(Carboxymethyl)oxy]phenyl]-1,3-di-(n-propyl)xanthine N,N-[(1,2-Diphenyl)maleyl]hydrazide], the inhibition constant Ki in assay [1] came out at 95.8 ± 25.1 nM; in assay [2] (setting [7]) it was 27.9 ± 8.5 nM; in assay [4] it was 3450 ± 1470 nM; in assay [6], 2100 ± 630 nM. For the same compound, the rA1/hA2B in assay [2] (Table 4) was 3.4.
Consider `CCCn1c(=O)c2[nH]c(-c3ccc(OCC(=O)NNC(=O)C4CC=CCC4C(=O)O)cc3)nc2n(CCC)c1=O` (stereo not drawn) [Compound 51, 8-[4-[(Carboxymethyl)oxy]phenyl]-1,3-di-(n-propyl)xanthine N-[2-((1-Carboxy)-cis-4-cyclohexene)-carbonyl]hydrazide], for which the Ki in assay [1] amounted to 134 ± 19 nM; in assay [2] (setting [7]), 51 ± 7 nM; in assay [4], 1060 ± 150 nM; in assay [6], 813 ± 299 nM. The rA1/hA2B in assay [2] (Table 4) worked out at 2.6.
On to `CCCn1c(=O)c2[nH]c(-c3ccc(OCC(=O)NNC(=O)C4=C(C(=O)O)CCC4)cc3)nc2n(CCC)c1=O` [Compound 53, 8-[4-[(Carboxymethyl)oxy]phenyl]-1,3-di-(n-propyl)xanthine N-[2-((1-Carboxy)-1-cyclopentene)-carbonyl]hydrazide], for which the inhibition constant (Ki) in assay [1] was found to be 81.7 ± 31.2 nM; in assay [2] (setting [7]), 78.5 ± 20.5 nM; in assay [4] it was 1180 ± 700 nM; in assay [6], 708 ± 169 nM. In addition, the rA1/hA2B in assay [2] (Table 4) amounted to 1.0.
Take `CCCn1c(=O)c2[nH]c(-c3ccc(OCC(=O)NN4C(=O)C5=C(CCC5)C4=O)cc3)nc2n(CCC)c1=O` [Compound 54, 8-[4-[(Carboxymethyl)oxy]phenyl]-1,3-di-(n-propyl)xanthine N,N-(1-Cyclopentene-1,2-dicarbonyl)hydrazide]: the Ki in assay [1] stood at 41.3 ± 6.4 nM; in assay [2] (setting [7]), 21.5 ± 1.5 nM; in assay [4] it was 309 ± 88 nM; in assay [6], 1160 ± 337 nM. The rA1/hA2B in assay [2] (Table 4) was 1.9.
The like results for `CCCn1c(=O)c2[nH]c(-c3ccc(OCC(=O)NN4C(=O)C5=C(CCCC5)C4=O)cc3)nc2n(CCC)c1=O` [Compound 56, 8-[4-[(Carboxymethyl)oxy]phenyl]-1,3-di-(n-propyl)xanthine N,N-(3,4,5,6-Tetrahydrophthaloyl)hydrazide] were, in that order, 61.9 ± 11.3 nM, 35.8 ± 0.7 nM, 245 ± 45 nM, 415 ± 157 nM and 1.7.
`CCCn1c(=O)c2[nH]c(-c3ccc(OCC(=O)NN4C(=O)CCCC4=O)cc3)nc2n(CCC)c1=O` [Compound 58, 8-[4-[(Carboxymethyl)oxy]phenyl]-1,3-di-(n-propyl)xanthine N,N-Glutarylhydrazide]: the Ki worked out at 14 ± 2.3 nM in assay [1], 22 ± 5.5 nM in assay [2] (setting [7]), 200 ± 45 nM in assay [4] and 135 ± 39 nM in assay [6]. The rA1/hA2B in assay [2] (Table 4) turned out to be 0.6.
With `CCCn1c(=O)c2[nH]c(-c3ccc(OCC(=O)NN4C(=O)CC(O)CC4=O)cc3)nc2n(CCC)c1=O` [Compound 59, 8-[4-[(Carboxymethyl)oxy]phenyl]-1,3-di-(n-propyl)xanthine N,N-(3-Hydroxy)glutarylhydrazide], the Ki was 41.2 ± 16.6 nM in assay [1], 25.7 ± 5.5 nM in assay [2] (setting [7]), 290 ± 88 nM in assay [4] and 164 ± 61 nM in assay [6]. The rA1/hA2B in assay [2] (Table 4) worked out at 1.6.
With `CCCn1c(=O)c2[nH]c(-c3ccc(OCC(=O)NNC(=O)[C@H](CCC(=O)O)NC(=O)C(F)(F)F)cc3)nc2n(CCC)c1=O` [Compound 60, 8-[4-[(Carboxymethyl)oxy]phenyl]-1,3-di-(n-propyl)xanthine N-[(4-Carboxy-(2S)-Trifluoroacetamido)-n-butanoyl]hydrazide], the Ki in assay [1] came out at 70.8 ± 30.9 nM; in assay [2] (setting [7]) it was 24.8 ± 7.3 nM; in assay [2] (read-out: Ki value at human A2B receptors) it was 25 nM; in assay [4] it was 430 ± 44 nM; in assay [6] it was 872 ± 412 nM. For the same compound, the rA1/hA2B in assay [2] (Table 4) was determined as 2.9.

These data come from patent US6545002B1 (University of Virginia Patent Foundation, priority 1999, dated 2003).
